Test results from publication PMC7579925, “Complementary NAD^+ replacement strategies fail to functionally protect dystrophin-deficient muscle” (Skeletal Muscle, 2020).

Target: T1, CD38 (Mus musculus, UniProt P56528)
T1 construct: recombinant soluble (extracellular) domain, expressed in and purified from Pichia pastoris
T1 sequence (P56528 45-304 limits assumed): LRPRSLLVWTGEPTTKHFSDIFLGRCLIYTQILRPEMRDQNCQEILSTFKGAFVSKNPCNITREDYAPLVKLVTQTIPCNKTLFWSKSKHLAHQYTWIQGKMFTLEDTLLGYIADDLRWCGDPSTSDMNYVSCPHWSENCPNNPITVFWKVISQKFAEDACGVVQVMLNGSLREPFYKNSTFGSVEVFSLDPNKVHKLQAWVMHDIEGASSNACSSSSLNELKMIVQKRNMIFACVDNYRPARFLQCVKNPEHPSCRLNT
Assay: colorimetric base-exchange (transglycosidation) assay, dose-response
Format: biochemical

How did the IC50 turn out when GSK978A was run?
Its IC50 is ~ 12 ng/mL.
